Experiment [1] deals with N-Myc-Max transcription activity (LNCaP-NMYC cells). Briefly: Myc transcription assay (Cignal Myc reporter, luciferase) in LNCaP-NMYC cells. Type of experiment: cell-based. An outline of the steps: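 LNCaP-NMYC cells transfected with Cignal Myc luciferase reporter were treated 24 h with compounds at 5 µM or 10 µM. Read-out: inhibition of N-Myc-Max-driven reporter luminescence.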

Another experiment concerns NCI-H660 cells. The experiment can be described thus: Cell viability (CellTiter-Glo), NCI-H660. The experiment is classed as cell-based. As for the experimental part:
Viability of N-Myc positive (IMR32and NCI-H660) and negative (HO15.19) cells were determined using the CellTiter-Glo Luminescent Cell Viability Assay (Promega cat. G7570) (Madison, WI, USA). Cells were seeded into a 96-well white plate with a clear bottom: 10,000 cells per well for the IMR32 cells cultured in EMEM supplemented with 10% FBS, 2000 HO15.19 cells per well in Eagle’s minimum essential medium (EMEM) supplemented with 10% FBS, and 2000 cells per well for the NCI-H660 neuroendocrine cells cultured in RPMI supplemented 5% FBS, 1% Insulin-Transferrin-Selenium (Thermo Fisher, 41400-045), 10nM b-estradiol (Sigma, E8875), 10nM hydrocortisone (Sigma H0888) and 1% matrigel. Following 24 h incubation, the cells were treated with serial dilutions of the derivatives along with the respective parental compound starting at 25 μM for 72 h. Cell Titer Glo was added to each well at a ratio of 1:1 and incubated on a shaker at RT for 2 min. Luminescence and IC50 was measured with the TECAN InfiniteM200 plate reader (Männedorf, Switzerland).

The target in the next experiment is T1, N-Myc-Max complex (Homo sapiens, UniProt P04198+P61244).
T1 construct: N-Myc (amino acids 309–394) and Max (amino acids 12–93); 6xHis (N); made in house; host or cells: E. coli BL21
T1 sequence (P04198 379-464 limits assumed): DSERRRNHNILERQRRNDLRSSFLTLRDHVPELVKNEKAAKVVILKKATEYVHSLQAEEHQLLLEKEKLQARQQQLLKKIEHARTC
T1 sequence (P61244 12-93 isoform P61244-2 limits assumed): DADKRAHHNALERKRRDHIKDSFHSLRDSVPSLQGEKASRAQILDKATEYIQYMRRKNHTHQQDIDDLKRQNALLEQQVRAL
Briefly: Microscale thermophoresis (MST) binding. Conditions: for binding to N-Myc-Max complex (in words): MST. The source says: We first performed a microscale thermophoresis (MST) assay to validate the direct binding of VPC-70619 to the recombinant N-Myc-Max complex and to calculate the binding affinity. We evaluated the effect of increasing concentrations of 70619 on the movement of a fluorescent labelled N-Myc-Max complex through a temperature gradient induced by an infrared laser.
The bHLHLZ domain of N-Myc (amino acids 309–394) and Max (amino acids 12–93) protein sequences were cloned into pETDuet with an N-terminal 6×His. pETDuet-His-NMyc-Max was transformed and expressed in E. coli BL21 and induced with 0.5 mM isopropyl-β-D-thiogalactopyranoside (IPTG) at 16 °C overnight. The cultures were lysed by sonication and combined for purification by immobilized metal ion chromatography (IMAC) with nickel-nitrilotriacetic acid (Ni-NTA) resin. The bound proteins were eluted from the column with 20 mM Tris, pH = 8, 500 mM NaCl, 5% glycerol, 300 mM imidazole, 5 mM βMe, and 0.1 mM PMSF. Size exclusion chromatography with Superdex 75 was used to increase the purity of the N-Myc-Max protein sample. The purified protein complex was used in subsequent BLI and MST experiments.
An MST assay was conducted to determine the binding affinity of 70619 to the purified N-Myc-Max protein complex. N-Myc-Max protein samples were labeled with the red fluorescent dye NT647 using the Monolith NT Protein labeling kit RED-NHS amine-reactive (NanoTemper Technologies, München, Germany); 70619 was serial diluted with 100% DMSO and mixed with the labeled fluorescent N-Myc-Max (final concentration of protein: 5 nM) in the assay reaction buffer (20 mM Tris, pH = 8, 100 mM NaCl, 0.2 mM TCEP, 0.1 mM PMSF, 5% glycerol) starting at 600 μM, with a final concentration of DMSO of 5%. The protein/inhibitor solution was mixed and incubated at room temperature in the dark for 5 min before being filled into the capillaries. […] Analysis of the data for Kd estimation was calculated with the MO Affinity Analysis software from Nanotemper (München, Germany).
A general note: In MST a laser heats a spot of the sample, and binding alters the fluorescence response.

The target of the next experiment is T2, N-Myc-Max heterodimer (Homo sapiens, UniProt P04198+P61244).
T2 construct: expressed in transfected cells; host or cells: LNCaP-NMYC cells (gift from David Rickman)
T2 sequence (P04198 whole entry): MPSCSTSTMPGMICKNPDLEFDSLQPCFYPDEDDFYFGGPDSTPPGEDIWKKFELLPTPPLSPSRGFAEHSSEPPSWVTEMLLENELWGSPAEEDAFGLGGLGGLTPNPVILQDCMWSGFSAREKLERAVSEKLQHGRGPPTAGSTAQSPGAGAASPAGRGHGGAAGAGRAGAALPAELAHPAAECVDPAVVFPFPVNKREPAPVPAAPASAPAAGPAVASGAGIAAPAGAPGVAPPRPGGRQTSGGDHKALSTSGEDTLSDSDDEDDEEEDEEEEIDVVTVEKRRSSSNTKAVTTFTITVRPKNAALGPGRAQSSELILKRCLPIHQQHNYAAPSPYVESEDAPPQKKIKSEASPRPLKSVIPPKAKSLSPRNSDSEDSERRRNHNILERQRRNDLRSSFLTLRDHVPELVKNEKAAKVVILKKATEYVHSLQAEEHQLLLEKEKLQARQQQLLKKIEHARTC
T2 sequence (P61244 whole entry): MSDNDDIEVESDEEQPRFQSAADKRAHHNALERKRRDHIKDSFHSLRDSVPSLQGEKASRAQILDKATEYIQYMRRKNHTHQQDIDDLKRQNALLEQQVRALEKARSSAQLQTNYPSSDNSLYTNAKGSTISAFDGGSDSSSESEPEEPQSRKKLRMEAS
The experiment can be described thus: Proximity ligation assay (PLA) in LNCaP-NMYC cells. The experiment is classed as cell-based. Conditions: 10 µM, 72 h. The protocol:
To confirm that 70619 could disrupt the binding of N-Myc-Max DBD to DNA, we performed a bio-layer interferometry (BLI) assay where we immobilized biotinylated E-box sequence on streptavidin sensors, and we evaluated recombinant N-Myc-Max binding to the DNA in the presence of increasing concentrations of VPC-70619. […] We observed a similar number of interactions when comparing the ratio of signal per nuclei in the presence or absence of the compound.
LNCaP-NMYC cells were seeded on coverslips at a density of 10^5 cells per well of a 6-well plate. After incubation for 24 h the cells were treated with 10 μM of either 10074-G5 or 70619 for 72 h. The coverslips were fixed with methanol:acetone (3:1) and incubated with primary antibodies n-Myc Antibody (NMYC-1) (Novus Biologicals NB200-109) (Littleton, CO, USA) and MAX Antibody (C-17) (Santa Cruz sc-197) (Dallas, TX, USA) overnight at 4 °C. PLA was conducted using the Duolink In Situ Detection Reagents Red kit (Sigma DUO92008) according to the manufacturer’s protocol. The coverslips were then mounted on slides with VECTASHIELD mounting media with DAPI, and images were taken on ZEISS 780 confocal microscope at 40× magnification.

Consider one compound from paper PMC8910697, “Development of VPC-70619, a Small-Molecule N-Myc Inhibitor as a Potential Therapy for Neuroendocrine Prostate Cancer” (International Journal of Molecular Sciences, 2022).

Where only a bound is given, the exact number is not on record here.

As to `N#Cc1ccc(NNC(=O)c2ccc(C#N)c(Cl)c2)c(C(F)(F)F)c1` [compound 70619], the IC50 in experiment [1] (24 h, treatment for 1 day, 0–25 µM, read-out: IC50 in the luciferase transcription inhibition assay) is 4.3 µM; in the experiment with NCI-H660 cells (NCI-H660, 72 h, read-out: IC50 cell proliferation in NCI-H660), 7 µM. In addition, the “transcription inhibition activity at 5 µM (in words)” value in experiment [1] (LNCaP-NMYC, 5 µM) is reported as “restoring the inhibitory activity”. Besides, in the experiment with NCI-H660 cells (NEPC in vitro model), the “inhibition of NCI-H660 (in words)” value was “good inhibition”. In addition, the “binding to N-Myc-Max complex (in words)” value is reported as “bind weakly” on N-Myc-Max complex and “somewhat weak affinity” at N-Myc-Max complex (listed as VPC-70619). In addition, the Kd at N-Myc-Max complex (estimate, limited solubility in assay buffer, read-out: dissociation constant) is greater than 130 µM. In addition, the “effect on N-Myc-Max heterodimer interactions (in words)” value on N-Myc-Max heterodimer was “does not disrupt Myc-Max complexes”; on N-Myc-Max heterodimer (listed as VPC-70619) it was “does not disrupt the N-Myc-Max heterodimer formation”.
